Results reported in patent publication US9494576B2, “Methods for detecting contaminants in solutions containing glucose polymers” (ROQUETTE FRERES, priority 2011, dated 2016).
Read-outs that look alike come from different tables or passages of the source.

Experiments:
THP-1 cells [1] = assay: Production of RANTES by differentiated (MDP-sensitized) THP-1 cells, ELISA; type: cell-based; conditions: for synergistic effect on the production of RANTES: sensitizer added to PGN/LPS: MDP 10 μg/ml, f-MLP 1, 10, 100 nM, LPS 25 pg/ml; for Detection threshold / EC50: RANTES; for Detection threshold / EC50 / Sensitivity: without MDP; for Sensitivity: per g of polymer at 25 mg/ml
Method: (§1) The THP-1 cells (88081201, ECACC) are cultured routinely in the laboratory.
(§2) For the pro-inflammatory activation experiments, the THP-1 cells are differentiated for 3 days in the presence of phorbol ester (PMA). In particular, the cells are placed in culture in 200 μl of complete medium in the presence of 20 nM of PMA for 72 h (final cell density: 0.75×10^6 cells/ml).
(§3) The differentiated THP-1 cells (0.75×10^6 cells/ml) are placed in culture in 200 μl of complete medium, and then incubated in the presence of the various test samples.
(§4) Each analysis is carried out in triplicate.
(§5) The cell supernatants are collected in order to assay the secreted cytokines after 8 h of stimulation for TNF-α, and 20 h for RANTES.
(§6) The ELISA assays are carried out according to the indications given by the supplier.
The following experimental conditions are selected: • final concentration of differentiated THP-1 cells: 0.75×10^6 cells/ml, […], • final glucose polymer concentration: 25 mg/ml, • response: ELISA assay of the production of RANTES after 20 h of stimulation.

NOD2 = NOD2 (Homo sapiens, UniProt Q9HC29); assay: SEAP production by HEK-BLUE hNOD2 line (HEK-NOD2); type: cell-based
Chain of NOD2 (Q9HC29 whole entry): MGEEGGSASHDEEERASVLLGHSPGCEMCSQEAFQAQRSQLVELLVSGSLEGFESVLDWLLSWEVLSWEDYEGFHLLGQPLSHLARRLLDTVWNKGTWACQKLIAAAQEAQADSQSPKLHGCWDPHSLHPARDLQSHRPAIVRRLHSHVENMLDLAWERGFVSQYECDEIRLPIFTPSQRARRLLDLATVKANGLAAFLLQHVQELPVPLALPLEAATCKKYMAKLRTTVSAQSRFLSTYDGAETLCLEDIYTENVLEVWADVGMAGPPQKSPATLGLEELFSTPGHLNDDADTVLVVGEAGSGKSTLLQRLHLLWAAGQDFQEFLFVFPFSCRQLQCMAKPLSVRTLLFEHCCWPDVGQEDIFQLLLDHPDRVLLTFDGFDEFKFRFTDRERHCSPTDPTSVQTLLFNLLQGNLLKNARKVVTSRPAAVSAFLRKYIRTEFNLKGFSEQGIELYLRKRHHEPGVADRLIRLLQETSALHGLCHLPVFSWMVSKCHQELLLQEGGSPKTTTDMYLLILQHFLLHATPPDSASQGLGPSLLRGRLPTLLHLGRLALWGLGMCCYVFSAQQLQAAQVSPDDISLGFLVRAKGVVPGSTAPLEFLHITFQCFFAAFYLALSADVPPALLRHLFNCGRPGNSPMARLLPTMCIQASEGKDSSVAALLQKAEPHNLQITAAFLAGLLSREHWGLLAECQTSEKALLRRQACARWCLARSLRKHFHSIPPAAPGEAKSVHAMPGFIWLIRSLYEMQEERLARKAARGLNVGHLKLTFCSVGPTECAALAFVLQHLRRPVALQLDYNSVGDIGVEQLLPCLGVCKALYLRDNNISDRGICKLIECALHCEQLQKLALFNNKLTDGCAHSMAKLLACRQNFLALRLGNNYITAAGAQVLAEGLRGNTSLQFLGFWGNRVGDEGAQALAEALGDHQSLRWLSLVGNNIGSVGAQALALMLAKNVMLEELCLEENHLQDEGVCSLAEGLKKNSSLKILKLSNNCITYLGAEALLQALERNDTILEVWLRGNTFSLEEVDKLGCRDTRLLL
Text: (§7) The HEK-BLUE cell lines (InvivoGen) are lines modified by stable transfection with vectors encoding innate immunity receptors. These cells are also cotransfected with a reporter gene which produces a secreted form of alkaline phosphatase (SEAP: secreted embryonic alkaline phosphatase), the synthesis of which is under the direct control of the signaling pathway associated with the receptor(s) expressed in the same cell line.
(§8) This line, which naturally expresses virtually all the innate immunity receptors, is used as a positive control in the tests.
(§9) The RAW-BLUE and HEK-BLUE cells are cultured according to the supplier's recommendations. In particular, the selection pressure for the plasmids encoding the inflammatory molecule receptors (TLR2 or NOD2) and encoding the SEAP is provided by adding, to the culture medium, the HEK-BLUE Selection/blasticidin antibiotics. At 75% confluence, the cells are resuspended at a cell density of 0.28×10^6 cells/ml. Before stimulation, 180 μl of the cell suspension are distributed into the culture wells (96-well plate), i.e. 50 000 cells/well. The cells are then stimulated for 24 h by adding 20 μl of the test samples (in ten-times concentrated form). The stimulation lasts from 16 to 24 h.
(§10) The production of SEAP in response to the contaminated molecules is estimated by measuring the phosphatase activity according to the protocol supplied by the manufacturer: 20 μl of culture supernatant are diluted in 180 μl of QUANTI-BLUE. The color develops at 37° C. and the reading is carried out, at various times, at 620 nm. The data are expressed as absorbance after subtraction of the background noise, obtained by adding the same volume of nonconditioned culture medium to the reaction medium of the enzyme.
In the new procedure referred to as without subculturing, the HEK-NOD2 cells are conditioned in wells (10 000/well) and cultured for three days. Before stimulation, the culture medium is removed and replaced with a medium containing 1% of FCS and the solutions to be assayed. In this case, the SEAP response is 5-6 times greater than the negative control, which is compatible with a test for detecting MDP in contaminated solutions (FIG. 12).
(§11) The following experimental conditions were selected: • final glucose polymer concentration: 37.5 mg/ml for the HEK-BLUE-cells, and 50 mg/ml for the RAW-BLUE cells, • enzymatic reaction: 50 μl of conditioned medium+150 μl of SEAP reagent, • minimum reaction time: 60 min.

TLR2 [2] = target: T1, TLR2 (Homo sapiens, UniProt O60603); assay: SEAP production by HEK-BLUE hTLR2 line (HEK-TLR2); type: cell-based
T1 sequence (O60603 21-784): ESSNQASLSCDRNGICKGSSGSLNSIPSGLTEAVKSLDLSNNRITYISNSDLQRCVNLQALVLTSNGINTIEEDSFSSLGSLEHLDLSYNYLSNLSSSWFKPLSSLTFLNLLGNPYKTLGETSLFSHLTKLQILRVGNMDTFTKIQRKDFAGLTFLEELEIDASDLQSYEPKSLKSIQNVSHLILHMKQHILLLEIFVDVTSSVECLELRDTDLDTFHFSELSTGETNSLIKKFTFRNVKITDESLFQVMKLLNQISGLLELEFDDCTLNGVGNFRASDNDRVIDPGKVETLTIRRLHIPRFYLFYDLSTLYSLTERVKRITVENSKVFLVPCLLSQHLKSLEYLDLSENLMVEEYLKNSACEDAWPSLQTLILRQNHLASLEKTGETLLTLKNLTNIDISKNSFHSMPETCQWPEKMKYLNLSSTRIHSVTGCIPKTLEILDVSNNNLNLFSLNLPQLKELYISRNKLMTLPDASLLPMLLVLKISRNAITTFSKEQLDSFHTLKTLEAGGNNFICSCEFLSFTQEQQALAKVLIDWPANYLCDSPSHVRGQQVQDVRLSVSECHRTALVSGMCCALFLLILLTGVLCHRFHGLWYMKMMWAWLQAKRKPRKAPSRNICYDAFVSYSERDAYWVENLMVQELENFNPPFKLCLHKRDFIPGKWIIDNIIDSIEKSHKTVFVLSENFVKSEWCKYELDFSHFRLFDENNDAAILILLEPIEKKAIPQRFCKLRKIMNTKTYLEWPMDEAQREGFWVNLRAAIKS
Method: as §7, with “line. […]” for “line.”
as §9, §10, §11

HEK-BLUE Null2 line = assay: SEAP production by HEK-BLUE Null2 control line (HEK-Null); type: cell-based
Method: as §8, §9, §10

THP-1 cells [3] = type: cell-based
Method: as §1, §2, §3, §4, §5, §6

mononuclear cells = conditions: background statement, cited from earlier work
RAW-BLUE cells = assay: SEAP production by RAW-BLUE line; type: cell-based, mouse; conditions: for Detection threshold / EC50: RAW-BLUE line; for Sensitivity: per g of polymer at 50 mg/ml
Method: as §8, §9, §10, §11

TLR2 [4] = target: T1, TLR2; assay: Peptidoglycan assay method with HEK-BLUE hTLR2 cells, with or without mutanolysin treatment; type: cell-based
Method: The assay is based on the specific recognition of PGNs by a line expressing the TLR2 receptor and on the production of an enzymatic activity that is measurable via the activation of the signaling pathway associated with TLR2.
The dose-response curve was produced with standard S. aureus PGN (FIG. 21).
The HEK-BLUE cells are incubated with increasing concentrations of standard, and the cell response is measured by quantifying the enzymatic activity produced.
The result is a conventional sigmoid cell response curve: • part (A) corresponds to the responses obtained with low concentrations of PGN, below those which give effective activation of TLR2. This nonlinear zone therefore corresponds to the threshold limit of detection of the method. In such a way as to include the variability of the method, this detection threshold is estimated at three times the value of the background noise (response obtained in the absence of stimulus). • part (B) is the most interesting since a linear response is observed. This effective-response zone makes it possible to determine a direct relationship between the cell response and the level of PGN. It is therefore the assaying zone; • part (C) corresponds to a saturation of the cell response in the presence of PGN concentrations which are too high. […]
The PGN assays are carried out on glucose polymer solutions. The sample requiring the PGN quantification is incubated with HEK-BLUE hTLR2 cells, and the cell response is measured by quantifying the enzymatic activity produced. The amount of PGN contained in the sample can be determined by referring to the dose-response curves. […]
The samples were treated in the presence of 2500 U/ml of mutanolysin for 16 h at 37° C., and then added to the HEK-TLR2 cells. The cell response was measured by following the activity of the SEAP produced, according to the conditions described in example 3. […]
The absorbance values were reported on the calibration curves established under the same conditions with the standard PGN (FIG. 23), so as to determine the PGN concentrations present in the glucose polymers.

[5] = test of resumption of growth, FIG. 8, supplier's culture procedure

formyl-Met-Leu-Phe tripeptide [f-MLP]
synergistic effect on the production of RANTES (THP-1 cells [1]): no synergistic effect was observed

Tumor Necrosis Factor alpha [TNF-α]
SEAP response of HEK-NOD2 cells (NOD2; [5]): responds only very weakly
SEAP response of HEK-TLR2 cells to inflammatory molecules (TLR2 [2]): respond
SEAP response of HEK-Null cells (HEK-BLUE Null2 line): respond

CC(=O)N[C@H]1C(O)O[C@H](CO)[C@@H](O)[C@@H]1O[C@H](C)C(=O)N[C@@H](C)C(=O)N[C@H](CCC(=O)O)C(N)=O (mixture of isomers) [MDP, muramyl dipeptide]
synergistic effect on the production of TNF-α (THP-1 cells [3]): not very marked
Detection threshold (NOD2; HEK-NOD2 line): 1.5 ± 0.5 ng/mL
EC50 (NOD2; HEK-NOD2 line): 0.012 ± 0.006 µg/mL
Sensitivity (NOD2; per g of polymer at 37.5 mg/ml): 40 ± 13 ng/g
SEAP response relative to the negative control (NOD2; procedure without subculturing, 10 000 cells/well, FIG. 12): 5-6 times
SEAP response of HEK-NOD2 cells (NOD2; selected conditions, FIG. 16): respond effectively
SEAP response of HEK-NOD2 cells (NOD2; [5]): responds only very weakly
SEAP response of HEK-Null cells (HEK-BLUE Null2 line): insensitive
increase of the sensitivity of the THP-1 cells to LPS and PGN (factor) (THP-1 cells [1]; MDP 10 μg/ml): 5
synergistic effect on the production of RANTES and of TNF-α in response to PGN and LPS (THP-1 cells [1]; minimum dose 1 μg/ml): does not induce a significant synergistic effect
synergistic effect on the production of RANTES (THP-1 cells [1]): clearly show a synergistic effect

lipoteichoic acid [LTA]
SEAP response of HEK-TLR2 cells to inflammatory molecules (TLR2 [2]): weaker

Lipopolysaccharides [LPS]
synergistic effect on the production of TNF-α (THP-1 cells [3]; sensitizer added to PGN/LPS: MDP 10 μg/ml, LPS 25 pg/ml): synergistic effect of the two agonists is visible
concentration inducing a significant response (mononuclear cells): about 1 ng/ml
SEAP response of RAW-BLUE cells to inflammatory molecules (RAW-BLUE cells): weak
detection threshold relative to that of the sensitized THP-1 cells (RAW-BLUE cells): approximately 50 times
Detection threshold (RAW-BLUE cells): 0.24 ± 0.06 ng/mL
EC50 (RAW-BLUE cells): >0.01 µg/mL
Sensitivity (RAW-BLUE cells): 4.8 ± 1.2 ng/g
Detection threshold (THP-1 cells [1]): 10 ± 7 pg/mL
EC50 (THP-1 cells [1]): 0.0009 ± 0.0001 µg/mL
Sensitivity (THP-1 cells [1]): 400 ± 280 pg/g
synergistic effect on the production of RANTES (THP-1 cells [1]): synergistic effect of the two agonists is visible

peptidoglycans [PGN]
PGN levels detected by the HEK-TLR2 line (TLR2 [2]): below 2 ng/g of glucose polymer
SEAP response of HEK-TLR2 cells to inflammatory molecules (TLR2 [2]): responds effectively
reduction of reactivity for the HEK-TLR2 cells after passing through a 0.22 μm filter (TLR2 [2]): approximately 50%
sensitivity threshold relative to the sensitized THP-1 cells (TLR2 [2]): 50 times
Detection threshold (TLR2 [2]; HEK-TLR2 line): 0.07 ± 0.04 ng/mL
EC50 (TLR2 [2]; HEK-TLR2 line): 0.0031 ± 0.0025 µg/mL
SEAP response of HEK-TLR2 cells to inflammatory molecules (TLR2 [2]; listed as PUN): respond very effectively
Sensitivity (TLR2 [2]; per g of polymer at 37.5 mg/ml): 1.9 ± 1.1 ng/g
SEAP response of HEK-Null cells (HEK-BLUE Null2 line): insensitive
concentration required for a similar response, relative to LPS (mononuclear cells; w/w ratio): at least 100 times
reduction of the response of the HEK-TLR2 cells by mutanolysin treatment (TLR2 [4]; 2500 U/ml, 16 h, 37° C., absence of glucose polymer): more than 50%
response of the HEK-TLR2 cells after mutanolysin treatment (TLR2 [4]; in the presence of 7.5% of polymer): improved
response of the HEK-TLR2 cells after mutanolysin treatment (TLR2 [4]; in the presence of 37.5% of polymer): unchanged
SEAP response of RAW-BLUE cells to inflammatory molecules (RAW-BLUE cells): respond well
Detection threshold (RAW-BLUE cells): 2.1 ± 1.5 ng/mL
EC50 (RAW-BLUE cells): 0.21 ± 0.075 µg/mL
Sensitivity (RAW-BLUE cells): 42 ± 30 ng/g
EC50 (THP-1 cells [1]): 1.2 ± 0.7 µg/mL
Detection threshold (THP-1 cells [1]; response > 3 x SD of background noise): 14500 ± 8500 pg/mL
Sensitivity (THP-1 cells [1]): 580000 ± 340000 pg/g
